Experimental data as given in paper PMC6880192, “Structure–Effect Relationships of Novel Semi-Synthetic Cannabinoid Derivatives” (Frontiers in Pharmacology, 2019).
“Also recorded” adds a separate entry of the source.

What was measured:
primary human monocytes = assay: Anti-inflammatory effect on LPS-treated monocytes (ELISA); format: cell-based
Protocol: Human peripheral blood monocytes were prepared from healthy donors who provided written informed consent at the local blood bank (University Hospital of Freiburg, Germany). Mononuclear cells were isolated by density gradient centrifugation according to standard protocol ([English and Andersen, 1974]) using lymphocyte separation medium, (PAN Biotech, Aidenbach). Cells were resuspended in RPMI-1640 medium (Invitrogen/Thermo Fisher Scientific, Karlsruhe) containing 10% human serum (Hexacell, Berlin). About 5 × 10^5 cells per milliliter were seeded in 24-well plates and incubated at 37°C and 5% CO2. The medium and the non-adherent cells were removed by washing with PBS and fresh RPMI medium, and 1% human serum was added to each well.
To test the anti-inflammatory effect of the test compounds, monocytes were incubated for 30 min with increasing doses of the test compounds. Then lipopolysaccharide (LPS) (10 ng/ml; Escherichia coli, Sigma-Aldrich, St. Louis) was added followed by a 24 h incubation period. The supernatants were removed and the levels of IL-1β, IL-6, IL-8, TNF-α, and prostaglandin E2 (PGE2) determined by enzyme-linked immunosorbent assay (ELISA) performed according to the manufacturer’s instructions (IL-1β from Hiss, Freiburg; IL-6, IL-8, and TNF-α from ImmunoTools, Friesoythe; and PGE2 from Cayman, distributed by Biozol, Hamburg). Stimulation with LPS alone was considered 100%.

NFAT = assay: PMA/IO-induced NFAT-luc activation in Jurkat T-cells; format: cell-based; conditions: 0.5–25 µmol/L
Protocol: (§1) Jurkat T-cells (10^6 cells per milliliter) were transiently transfected with plasmids that contained an NF-κB-dependent (KBF-luc) or NFAT-dependent (NFAT-luc) promotors fused to the luciferase gene using Lipofectin (Life Technologies, Carlsbad) according to the manufacturer’s instructions ([Yano et al. 1987]; [Durand et al. 1988]). Twenty-four hours after transfection, cells were stimulated for 30 min with increasing doses of the test compounds or WIN as a control (Tocris, Bristol). Then PMA (50 ng/ml)—for NFAT-luc—plus ionomycin (0.5 µg/ml) (Sigma-Aldrich, St. Louis) was added, followed by a 6 h incubation period.
(§2) After the stimulations and incubations, cells were lysed in a solution of 25 mmol Tris-phosphate (pH = 7.8), 8 mmol MgCl2, 1 mmol dithiothreitol (DTT), 1% Triton X-100, and 7% glycerol. The luciferase activity was measured with a Luciferase Assay Kit (Promega, Madison) according to the manufacturer’s instructions using an AutoLumat LB 9501 (Berthold Technologies, Bad Wildbad).

CB2-receptor [1] = molecular target: T1, CB2-receptor (Homo sapiens, UniProt P34972); assay: Competition binding against [3H]-CP55940, CB2 membranes; conditions: for Ki: mean ± SEM, n = 3, radioligand [3H]-CP55940; for Selectivity CB2/CB1: ratio of Ki values
T1 construct: expressed in transfected cells; host or cells: CHO cells, stably transfected with CB2 cDNA (from IMIBIC) and transiently with CRE-luc

CB2-receptor [2] = molecular target: T1, CB2-receptor; assay: cAMP-dependent luciferase assay in CHO-CB2-CRE-luc cells; format: cell-based; conditions: for Effect on CB2: CHO-CB2-CRE-luc, summary classification; for CB2 agonistic effect compared with positive control WIN: same dose as 1 µmol/L WIN; for CB2-receptor agonistic activity (fold induction of CRE-luc): 15 min pre-incubation, then 10 µmol/L FSK for 6 h
Protocol: (§3) Briefly, CHO cells were stably transfected with CB1- and CB2-receptor complementary DNAs (cDNAs) (kindly provided by IMIBIC). Around 10^5 transfected cells per milliliter were seeded in 24-well plates and transiently transfected with the plasmid CRE-luc using Roti-Fect (Carl Roth, Karlsruhe) following the manufacturer’s instructions. The cells were harvested after 24 h. Two transfected cell types resulted: CHO-CB1-CRE-luc and CHO-CB2-CRE-luc.
(§4) To test for agonistic activity at the CB1-receptor, the CHO-CB1-CRE-luc cells were stimulated for 6 h with increasing concentrations of the test compounds ([Bouaboula et al. 1997]). Forskolin (FSK), a strong CB-receptor-independent activator of adenylyl-cyclase was used at 10 µmol/L as a positive control. To investigate the antagonistic activity, the CHO-CB1-CRE-luc cells were pre-incubated for 15 min with the test compounds before stimulation for 6 h with 1 µmol/L WIN ([Zheng et al. 2013]). To investigate CB2-receptor agonistic activity, CHO-CB2-CRE-luc cells were pre-incubated for 15 min with increasing concentrations of the test substances and then for 6 h with 10 µmol/L FSK. WIN, a non-specific agonist at CB2-receptors, was used as a positive control. To confirm CB2-receptor agonistic activities of the test compounds, CHO-CB2-CRE-luc cells were pre-incubated with the specific CB2-receptor antagonist AM630 (1 µmol/L, 6-iodopravadoline; Cayman, distributed by Biozol, Hamburg) ([Ross et al. 1999]; [Zheng et al. 2013]) and then treated with increasing concentrations of the test substances.
as §2

CB1-receptor [3] = molecular target: T2, CB1-receptor (Homo sapiens, UniProt P21554); assay: biochemical; format: binding; conditions: mean ± SEM, n = 3; radioligand [3H]-CP55940
T2 construct: expressed in transfected cells; host or cells: CHO cells, stably transfected with CB1 cDNA (from IMIBIC) and transiently with CRE-luc

NF-κB = assay: PMA-induced NF-κB-luc (KBF-luc) activation in Jurkat T-cells; format: cell-based; conditions: 0.5–25 µmol/L
Protocol: as §1, §2

RAW264.7 macrophages [4] = assay: IL-17-induced polarization to pro-inflammatory M1 macrophages (qPCR); format: cell-based; conditions: RAW264.7, 0.5 to 10 µmol/L
Protocol: To assess the IL-17-induced polarization to pro-inflammatory M1 macrophages, RAW264.7 macrophages (10^6 cells per Petri dish) were incubated for 18 h with or without the test compounds containing 0.1% FBS. Subsequently, they were stimulated for 24 h with recombinant murine IL-17 (50 ng/ml; R&D Systems, Minneapolis). The CB2-receptor agonist JWH-133 was used as a positive control. Then, the messenger RNA (mRNA) was extracted using RNeasy Mini Kits (Qiagen, Hilden), and its purity determined by UV measurements at 260 and 280 nm. The induction of IL-6, IL-1β, CC-chemokine ligand 2 (CCL2), and tumor necrosis factor (TNF)-α mRNA was assessed as markers of pro-inflammatory activity using quantitative real-time polymerase chain reactions (qPCRs).
mRNA reverse transcription in cDNA was performed with iQ™ SYBR Green Supermix and the CFX96 real-time PCR system (Bio-Rad, Hercules). The amplification consisted of a 5 min denaturation at 95°C followed by 40 cycles each of 30 s at 95°C and 30 s at 55°C (annealing). Elongation for 30 s at 72°C came next, followed by a cycle for 10 s at 83°C and finally a cycle for 1 min at 72°C. Calculations were made according to the Livak method by quantifying glyceraldehyde 3-phosphate dehydrogenase (GAPDH) as a reference ([Schmittgen and Livak 2008]). The results are given as multiples of the reference gene ([…]).

CB1-receptor [5] = molecular target: T2, CB1-receptor; assay: cAMP-dependent luciferase assay in CHO-CB1-CRE-luc cells; format: cell-based; conditions: for CB1-receptor antagonistic activity (fold induction of CRE-luc): 15 min pre-incubation, then 1 µmol/L WIN for 6 h; for CB1-receptor agonistic activity (fold induction of CRE-luc): 6 h stimulation with test compound; for Effect on CB1: CHO-CB1-CRE-luc, summary classification
Protocol: as §3, §4, §2

RAW264.7 macrophages [6] = assay: MTT cytotoxicity assay; format: cell-based; conditions: RAW264.7, concentrations of 5 and 10 µmol/L
Description: Cytotoxicity tests were done on CHO cells, Jurkat T-cells, or RAW264.7 macrophages using the MTT assay (Sigma-Aldrich, St. Louis) and on primary human monocytes with the alamarBlue assay (Thermo Fisher Scientific, Karlsruhe).

T1 sequence (P34972 whole entry): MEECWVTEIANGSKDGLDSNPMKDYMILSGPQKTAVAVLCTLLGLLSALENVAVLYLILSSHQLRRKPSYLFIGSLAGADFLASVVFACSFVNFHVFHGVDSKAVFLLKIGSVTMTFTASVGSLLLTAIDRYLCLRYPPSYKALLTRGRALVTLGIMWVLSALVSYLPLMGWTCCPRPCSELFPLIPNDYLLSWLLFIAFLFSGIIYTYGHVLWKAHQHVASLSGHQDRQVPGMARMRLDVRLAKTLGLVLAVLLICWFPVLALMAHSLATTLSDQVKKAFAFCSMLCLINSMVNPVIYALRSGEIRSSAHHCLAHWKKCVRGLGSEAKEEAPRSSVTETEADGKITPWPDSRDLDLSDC
T2 sequence (P21554 whole entry): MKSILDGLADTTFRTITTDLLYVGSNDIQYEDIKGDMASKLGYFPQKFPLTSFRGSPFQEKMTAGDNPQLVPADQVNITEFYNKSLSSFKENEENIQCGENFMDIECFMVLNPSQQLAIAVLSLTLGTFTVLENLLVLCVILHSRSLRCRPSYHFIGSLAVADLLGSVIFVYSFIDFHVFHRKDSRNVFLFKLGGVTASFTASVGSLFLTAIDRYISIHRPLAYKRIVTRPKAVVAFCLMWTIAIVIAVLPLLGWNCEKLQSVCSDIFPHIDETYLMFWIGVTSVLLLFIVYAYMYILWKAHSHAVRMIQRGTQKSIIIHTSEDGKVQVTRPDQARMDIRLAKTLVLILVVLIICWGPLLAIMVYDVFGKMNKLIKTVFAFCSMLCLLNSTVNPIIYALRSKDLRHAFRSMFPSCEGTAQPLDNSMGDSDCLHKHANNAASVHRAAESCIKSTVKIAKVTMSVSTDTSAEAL

| Structure (SMILES) | LPS-induced IL-1β release (primary human monocytes; LPS 10 ng/ml, 24 h) | LPS-induced IL-6 release (primary human monocytes; LPS 10 ng/ml, 24 h) | LPS-induced IL-8 release (primary human monocytes; LPS 10 ng/ml, 24 h) | LPS-induced TNF-α release (primary human monocytes; LPS 10 ng/ml, 24 h) | Inhibition of PMA/IO-induced NFAT activation (NFAT) | Ki (CB2-receptor [1]) | Selectivity CB2/CB1 (CB2-receptor [1]) | Effect on CB2 (CB2-receptor [2]) | Ki (CB1-receptor [3]) | Inhibition of PMA-induced NF-κB activation (NF-κB) | IL-17-stimulated CCL2 mRNA expression (RAW264.7 macrophages [4]) | IL-17-stimulated IL-1β mRNA expression (RAW264.7 macrophages [4]) | CB1-receptor antagonistic activity (fold induction of CRE-luc) (CB1-receptor [5]) | CB1-receptor agonistic activity (fold induction of CRE-luc) (CB1-receptor [5]) | Effect on CB1 (CB1-receptor [5]) | CB2-receptor agonistic activity (fold induction of CRE-luc) (CB2-receptor [2]) | also measured |
| --- | --- | --- | --- | --- | --- | --- | --- | --- | --- | --- | --- | --- | --- | --- | --- | --- | --- |
| C=C(C)[C@@H]1CCC(C)=C[C@H]1c1c(O)cc(CCCCC)c(C(=O)OC2CCCCC2)c1O [CHC (4), cyclohexyl cannabidiolate] | reduced | moderately and dose-dependently inhibited | moderately and dose-dependently inhibited | reduced | did not inhibit | 510 ± 290 nM | 1.7 | Agonist | 870 ± 100 nM | did not inhibit | inhibited | inhibited | negative | activate CB1-receptors | Agonist | – | Anti-inflammatory effects overall (primary human monocytes; LPS 10 ng/ml, 24 h): only very weak anti-inflammatory effects; CB2 agonistic effect compared with positive control WIN (CB2-receptor [2]): as strong as the same dose of the positive control |
| C=C(C)[C@@H]1CCC(C)=C[C@H]1c1c(O)cc(CCC)c(C(=O)OC2CCCCC2)c1O [CHCBDV (8), cyclohexyl cannabidivarinolate] | – | – | – | – | – | 4.62 ± 0.5 nM | 2.9 | Agonist | 13.2 ± 0.9 nM | – | – | – | – | non-selective agonism | Agonist | non-selective agonism | – |
| C=C(C)[C@@H]1CCC(C)=C[C@H]1c1c(O)cc(CCC)c(C(=O)OCCO)c1O [2-HECBDV (7), 2-hydroxyethyl cannabidivarinolate] | – | – | – | – | – | 168 ± 39.4 nM | 33.6 | Agonist | 5650 nM | – | – | – | – | – | Antagonist | dose-dependent agonistic effects | – |
| C=C(C)[C@@H]1CCC(C)=C[C@H]1c1c(O)cc(CCCCC)c(C(=O)OCCNS(C)(=O)=O)c1O [NMSC (6), 2-(methylsulfonamido)ethyl cannabidiolate] | enhanced | – | significantly reduced | significantly reduced | significantly inhibited | 12 ± 1 nM | 22.5 | Agonist | 270 ± 40 nM | inhibited | reduced compared to the control at all concentrations | inhibited TNF-α and IL-1β only at low doses | dose-dependent activity; also recorded: strongly CB1 antagonistic | – | Antagonist | – | LPS-induced PGE2 release (primary human monocytes; LPS 10 ng/ml, 24 h): significantly reduced; preference for the CB2-receptor (CB2-receptor [1]; CB2 over CB1): 22.5 fold; CB2 agonistic effect compared with positive control WIN (CB2-receptor [2]): similarly strongly agonistic; IL-17-stimulated IL-6 mRNA expression (RAW264.7 macrophages [4]): co-stimulated; IL-17-stimulated TNF-α mRNA expression (RAW264.7 macrophages [4]): inhibited TNF-α and IL-1β only at low doses |
| C=C(C)[C@@H]1CCC(C)=C[C@H]1c1c(O)cc(CCCCC)c(C(=O)OCC(O)CCC)c1O (some centres unmarked) [2-HPC (2), 2-hydroxypentyl cannabidiolate] | – | significantly inhibited | – | significantly inhibited | significantly inhibited | – | – | Agonist | – | – | – | – | – | – | Antagonist | – | LPS-stimulated IL-8 synthesis (primary human monocytes; dose of 1 µmol/L): inhibited; LPS-stimulated PGE2 synthesis (primary human monocytes; dose of 1 µmol/L): inhibited; Effect on cell viability (RAW264.7 macrophages [6]): negative effect on cell viability |
| C=C(C)[C@@H]1CCC(C)=C[C@H]1c1c(O)cc(CCCCC)c(C(=O)OCC(O)CO)c1O (some centres unmarked) [GCBD (3), 2,3-dihydroxypropyl cannabidiolate] | significantly inhibited | significantly inhibited | costimulated | significantly inhibited | significantly inhibited | – | 7.8 | Agonist | – | – | – | – | – | – | Antagonist | dose-dependent agonistic effects | Effect on cell viability (RAW264.7 macrophages [6]): negative effect on cell viability |
| C=C(C)[C@@H]1CCC(C)=C[C@H]1c1c(O)cc(CCC)c(C(=O)OCCCCCC)c1O [HCBDV (9), n-hexyl cannabidivarinolate] | – | – | – | – | – | 9.9 ± 2.5 nM | 0.8 | No activity | 8.3 ± 0.69 nM | – | – | – | – | agonistic effects | Agonist | no effect | – |
| C=C(C)[C@@H]1CCC(C)=C[C@H]1c1c(O)cc(CCCCC)c(C(=O)OCCCCCC)c1O [HC (5), n-hexyl-cannabidiolate] | inhibited at higher doses | dose-dependently inhibited | inhibited at higher doses | dose-dependently inhibited | no inhibition | 67 ± 4 nM | 37.3 | No activity | 2500 nM | only marginal | inhibited | inhibited | dose-dependent activity | – | Antagonist | did not activate | IL-17-stimulated IL-6 mRNA expression (RAW264.7 macrophages [4]): dose-dependent reduction |
